This note sets out measurements from patent publication US20140315991A1, “COMPOSITION FOR TREATMENT OF EPITHELIAL TISSUE” (NOVODERMIX INTERNATIONAL LIMITED, priority 2008, published 2014).

This series relates to mature atrophic post-Acne facial scarring. Kind of series: randomized, triple-blind study in mature atrophic post-Acne facial scarring (Example 7). It is filed as in vivo, human. Further details: transient reduction in vision (adverse event, one patient): unit not given here. The protocol: A randomized, triple-blind study was conducted on 35 patients in two sites in India (Amritsar and Faridkot). Ethnic skin patients (Fitzpatrick 4-5) with mature atrophic post-Acne facial scarring (scar age >2 years) were randomly assigned to one of four study arms: topical Topiramate 5.0% (n=10), topical Topiramate 2.5% (n=9), oral Topiramate 25 mg (n=8) and topical placebo (n=7). Patients applied the topical formulation once a day on both cheeks for 3 months. Clinical assessment was performed at 6 weeks and 3 months using a visual analog scale (VAS) by the patients and 3 independent observers (2 plastic surgeons and 1 general surgeon) who scored side-by-side cheek photos (before and after treatment).
Thirty five patients completed the study, and a total of 57 cheeks (topical Topiramate 5%—n=18; topical Topiramate 2.5%—n=19; oral Topiramate—n=13; topical Placebo—n=7) were evaluated and scored.

As to `CC1(C)O[C@@H]2[C@@H](CO[C@@]3(COS(N)(=O)=O)OC(C)(C)O[C@@H]23)O1` [Topiramate], the “advantage of the study group over the control (topical placebo)” value is reported as 95% (day 42) and 102% (day 90). Besides, the “improvement (visual analog scale, patients and 3 independent observers)” value is given as 13.91% (day 42, once a day) and 34.69% (day 90, once a day). Also, the “transient reduction in vision (adverse event, one patient)” value (from 20/20, within 2 days from starting 25 mg oral, returned to 20/20 within 7 days from stopping) is on record as −5.00.
